Data on four compounds can be found in patent publication US20050090485A1, “7-Arylsulfonamido-2,3,4,5-tetrahydro-1h-benzo'diazepine derivatives with 5ht6 receptor affinity for the reatment of cns disorders” (priority 2002, published 2005).

The target in data set [1] is T1, human cloned 5-HT6 receptors (Homo sapiens, UniProt P50406).
T1 construct: expressed in transfected cells
The data set can be described thus: 5-HT6 receptor affinity, procedures outlined in WO98/27081. The class given is binding. The conditions noted are these: read-out: pKi values at human cloned 5-HT6 receptors (converted). The source says: Compounds can be tested following the procedures outlined in WO98/27081.

T1 sequence (P50406 whole entry): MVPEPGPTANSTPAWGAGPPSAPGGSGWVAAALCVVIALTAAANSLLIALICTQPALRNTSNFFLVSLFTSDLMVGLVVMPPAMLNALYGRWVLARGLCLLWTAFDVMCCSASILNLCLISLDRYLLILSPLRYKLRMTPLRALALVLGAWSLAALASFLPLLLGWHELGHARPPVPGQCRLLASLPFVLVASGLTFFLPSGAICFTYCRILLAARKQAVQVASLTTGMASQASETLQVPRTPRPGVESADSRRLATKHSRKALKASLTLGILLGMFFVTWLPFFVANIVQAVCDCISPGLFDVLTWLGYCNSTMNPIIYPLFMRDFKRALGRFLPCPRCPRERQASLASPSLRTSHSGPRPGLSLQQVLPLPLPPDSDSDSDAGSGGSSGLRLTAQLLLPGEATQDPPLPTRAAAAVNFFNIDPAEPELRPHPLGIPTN

What is called melting point is the temperature of the solid-liquid transition. `Cl.O=S(=O)(Nc1ccc2c(c1)CCNCC2)c1ccc(Cl)cc1OC(F)(F)F` [Example E12, 7-(4-Chloro-2-trifluoromethoxy)phenylsulfonamido-2,3,4,5-tetrahydro-1H-benzo[d]azepine, hydrochloride] yielded a melting point of 210 to 211 °C.

Take `O=S(=O)(Nc1ccc2c(c1)CCNCC2)c1ccc(Cl)cc1OC(F)(F)F` [Example E10, 7(4-Chloro-2-trifluoromethoxy)phenylsulfonamido-2,3,5-tetrahydro-1H-benzo[d]azepine]: the Ki in data set [1] is under 3.16 nM.

Regarding `Cl.O=S(=O)(Nc1ccc2c(c1)CCNCC2)c1ccc(Br)cc1OC(F)(F)F` [Example E11, 7-(4Bromo-2-trifluoromethoxy)phenylsulfonamido-2,3,4,5-tetrahydro-1H-benzo[d]azepine, hydrochloride], the melting point was in the range of 231 to 233 °C.

With `O=S(=O)(Nc1ccc2c(c1)CCNCC2)c1ccc(Br)cc1OC(F)(F)F` [Example E6, 7-(4-Bromo-2-trifuoromethoxy)phenylsulfonamido-2,3,4,5-tetrahydro-1H-benzo[d]azepine], the Ki in data set [1] was under 3.16 nM.
